Entries after “also recorded” stand apart in the source; their conditions may differ.

Consider 2 compounds from patent US20220332758A1, “PEPTIDE-BASED COMPOSITIONS AND METHODS FOR TREATING ALZHEIMER'S DISEASE” (Board of Regents, The Universityof Texas System, priority 2019, published 2022).

One series is described as follows: Stability in human serum. The format is in vitro ADME.
For series [1], the target named is T1, latent 20S core proteasome, PGPH peptidase (Homo sapiens, UniProt P25787+P60900).
T1 construct: purified from erythrocytes; purchased Boston Biochem, Inc. or Enzo Life Sciences, Inc; host or cells: human erythrocytes
As to the kind of experiment: Post glutamyl peptide hydrolyzing (PGPH) peptidase activity of the core proteasome. The series is classed as biochemical. The method, then:
Determination of Proteasome Activity. Human housekeeping core (20S) proteasome purified from erythrocytes was purchased from Boston Biochem, Inc. (Cambridge, Mass.) or from Enzo Life Sciences, Inc. (Farmingdale, N.Y.). Multiple batches of the proteasomes were used and performed reproducibly. The stock proteasome was diluted to 0.2 mg/mL working solution in “dilution buffer” (50 mM Tris/HCl, pH 8, 20% glycerol). The following model peptide substrates, releasing fluorescent 7-amino-4-methylcoumarin (AMC) reporter group after cleavage, were used: succinyl-LeuLeuValTyr-AMC (SEQ ID NO: 14) (for the ChT-L peptidase; SucLLVY-AMC; Bachem Bioscience Inc., Philadelphia, Pa.), butoxycarbonyl-LeuArgArg-AMC (T-L; Bachem Bioscience Inc., Philadelphia, Pa.) and carbobenzoxy-LeuLeuGlu-AMC (PGPH; Enzo Life Sciences Inc., Farmingdale, N.Y.). […] After mixing, the plate was transferred to a Fluoroskan Ascent plate reader (Thermo Fisher Scientific Inc., Waltham, Mass.) for 1 h (37° C.), with fluorescence readouts once per minute. […] The reaction rates were calculated from a linear segment of kinetic curves constructed from measurements in 1-min intervals. Reaction rates were calculated using a linear fit performed with the Slope Analyser and Enzyme Kinetics applications launched within Origin Pro 2019 (OriginLab Corporation, Northampton, Mass.). […]

The target in series [2] is T2, proteasome ChT-L activity in SK-N-SH (ATCC HTB-11) cells (Homo sapiens, UniProt P25787+P60900).
T2 construct: host or cells: SK-N-SH human neuroblastoma cells
As to the kind of experiment: ChT-L proteasome activity in lysates of SK-N-SH cells treated with TAT peptides. The series is classed as cell-based. The conditions noted are these: for proteasome ChT-L activity in lysates from treated cells vs control lysates: 1 μM, 24 h.
Description: Cell Culture. Human SK-N-SH neuroblastoma cell line (ATCC® HTB-11™ American Type Culture Collection; Manassas, Va.) were cultured according to ATCC specifications (EMEM, 10% heat-inactivated FBS) The cells at passage 2-4 were treated with 1 μM TAT peptides or the DMSO vehicle diluted with the medium 1: 1000, for 24 h. The content of live cells was determined by the Trypan Blue-exclusion assay. The cells were harvested, washed twice in PBS, resuspended in dilution buffer (as described herein) and stored in −80° C. To prepare lysates, the thawed preparations were vortexed with glass beads and centrifuged for 5 min 5,000×g (4° C.). The supernatant was centrifuged for 20 min 14,000×g (4° C.). The resulting supernatant—“crude lysate” was diluted to 1 mg/mL of total protein with dilution buffer. 1 μg of lysate per assay (reaction buffer: 50 mM Tris/HCl pH 8, 0.1 mM MgCl2, 0.2 mM ATP, 0.1 mM dithiothreitol, 50 μM Suc-LLVY-AMC (SEQ ID NO: 14)) was used for determination of ChT-L activity in a 96-well format, as above.

For the next series, the target named is T3, human 26S proteasome (Homo sapiens, UniProt P25787+P60900).
T3 construct: purchased Boston Biochemicals (Boston Biochem)
As to the kind of experiment: Chymotrypsin-like activity of purified human 26S proteasome, Suc-LLVY-MCA substrate. The series is classed as biochemical. Particulars: in vitro.

As for `N=C(N)NCCCC(NC(=O)CN)C(=O)NC(CCCCN)C(=O)NC(CCCCN)C(=O)NC(CCCNC(=N)N)C(=O)NC(CCCNC(=N)N)C(=O)NC(CCC(N)=O)C(=O)N1Cc2ccccc2C[C@H]1C(=O)N1C(C(=O)NC(CCCNC(N)N)C(=O)N2CCCC2C(=O)NC(CO)C(=O)O)CC2CCCCC21` (stereo partly drawn) [(5), GRKKRRQ-TOD-RPS], the half-life in “Stability in human serum” was approximately 2 h. For the same compound, the “effect on PGPH activity” value in series [1] is listed as “weak inhibitory effects; also recorded: did not seem to significantly affect”. The “proteasome ChT-L activity in lysates from treated cells vs control lysates” value in series [2] is recorded as “significantly higher than activity in control lysates”. The “dose and time dependence of proteasome activation in cells” value in series [2] (0.5 or 1.0 μM, four or 24 h) is given as “substantially stronger after 4 h exposure than after 24 h”. Besides, the “activation of 26S proteasome (in words)” value at human 26S proteasome is listed as “strongly activate”.
In the case of `NCCCCC(N)C(=O)NC(CCCCN)C(=O)NC(CCCCN)C(=O)Nc1cc(NC(=O)C(CCCCN)NC(=O)C(CCCCN)NC(=O)C(N)CCCCN)cc(C(=O)NC(CCCCN)C(=O)NC(CCCCN)C(=O)NC(CCCCN)C(=O)O)c1` (stereo not drawn) [(8)], in “Stability in human serum”, the “stability in serum (in words)” value is listed as “rapidly modified from triple-lysines to double-lysines”. Moreover, the “effect on PGPH activity” value in series [1] is given as “weak inhibitory effects; also recorded: did not seem to significantly affect”. Also, the “proteasome ChT-L activity in lysates from treated cells vs control lysates” value in series [2] is recorded as “significantly higher than activity in control lysates”. The “activation of 26S proteasome (in words)” value on human 26S proteasome is “excellent activator”.
